Reference: ChEMBL document CHEMBL4411277, “Structural Revision of Macropodumine A and Structure of 2-Deoxymacropodumine A, Daphniphyllum Alkaloids with 11-Membered Macrolactone Rings” (J Nat Prod, 2019)

System: HeLa
Assay: Cytotoxicity against human HeLa cells assessed as reduction in cell viability by MTT assay
Format: functional, cell-based

`C[C@@H]1CN2C[C@H]3CCC(=O)OCC[C@H]4CC5=C(C4=O)[C@@]3(C)[C@H]2C[C@H]1C5=O` showed an IC50 of 3.89 µM.
